# Reference: patent publication US10435405B2, “Pyrazolopyridine compounds and uses thereof” (Incyte Corporation, priority 2016, dated 2019)
# pKi: −log10 of the molar value.
# Biological target: HPK1 (Homo sapiens (Human), UniProt Q92918)
# Test: HPK1 Kinase Binding Assay
# Method in brief: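 Active HPK1 (added as 4 nM solution) was combined with compound (3-fold, 11-point series) and tracer 222 (18 nM) plus Eu-anti-GST antibody (4 nM) in 50 mM HEPES pH 7.5 with MgCl2 and DTT. After 1 h at 25 °C plates were read. Ki values were derived.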
# Chain of HPK1 (Q92918 1-346): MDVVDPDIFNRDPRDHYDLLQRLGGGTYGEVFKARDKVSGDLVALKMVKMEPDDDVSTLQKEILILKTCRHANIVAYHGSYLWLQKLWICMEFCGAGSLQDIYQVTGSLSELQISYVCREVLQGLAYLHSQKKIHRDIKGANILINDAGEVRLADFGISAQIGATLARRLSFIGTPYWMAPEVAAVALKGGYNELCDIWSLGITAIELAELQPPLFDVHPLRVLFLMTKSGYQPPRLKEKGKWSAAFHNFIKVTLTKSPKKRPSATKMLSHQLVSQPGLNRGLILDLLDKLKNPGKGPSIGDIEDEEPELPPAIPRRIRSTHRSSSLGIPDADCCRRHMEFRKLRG
row,pKi,Structure (SMILES)
1,≥ 7.00,"Cc1cccc(F)c1-c1cc2c(NC(=O)c3ccc(N4CCN(C)CC4)cc3NCC(C)O)n[nH]c2cn1 (stereo not drawn) [Example 158, N-(5-(2-Fluoro-6-methylphenyl)-1H-pyrazolo[3,4-c]pyridin-3-yl)-2-(2-hydroxypropylamino)-4-(4-methylpiperazin-1-yl)benzamide]"
2,≥ 7.00,"Cc1cccc(F)c1-c1cc2c(NC(=O)c3ccc(N4CCN(C)CC4)cc3NCc3ccnn3C)n[nH]c2cn1 [Example 159, N-(5-(2-Fluoro-6-methylphenyl)-1H-pyrazolo[3,4-c]pyridin-3-yl)-2-((1-methyl-1H-pyrazol-5-yl)methylamino)-4-(4-methylpiperazin-1-yl)benzamide]"
3,≥ 7.00,"Cc1cccc(F)c1-c1cc2c(NC(=O)c3ccc(N4CCN(C)CC4)cc3NC3CCC(C#N)C3)n[nH]c2cn1 (stereo not drawn) [Example 160, 2-(3-Cyanocyclopentylamino)-N-(5-(2-fluoro-6-methylphenyl)-1H-pyrazolo[3,4-c]pyridin-3-yl)-4-(4-methylpiperazin-1-yl)benzamide]"
4,≥ 7.00,"CNCc1cc(F)c(-c2cc3c(-c4cnn(-c5ccccc5C#N)c4)n[nH]c3cn2)c(F)c1 [Example 161, 2-(4-(5-(2,6-Difluoro-4-((methylamino)methyl)phenyl)-1H-pyrazolo[3,4-c]pyridin-3-yl)-1H-pyrazol-1-yl)benzonitrile]"
5,≥ 7.00,"CNCc1cc(F)c(-c2cc3c(-c4cnn(C5CNC5)c4)n[nH]c3cn2)c(F)c1 [Example 162, 1-(4-(3-(1-(Azetidin-3-yl)-1H-pyrazol-4-yl)-1H-pyrazolo[3,4-c]pyridin-5-yl)-3,5-difluorophenyl)-N-methylmethanamine]"
6,≥ 7.00,"CNCc1cc(F)c(-c2cc3c(-c4ccnc(N5CCN(C)CC5)c4)n[nH]c3cn2)c(F)c1 [Example 163, 1-(3,5-Difluoro-4-(3-(2-(4-methylpiperazin-1-yl)pyridin-4-yl)-1H-pyrazolo[3,4-c]pyridin-5-yl)phenyl)-N-methylmethanamine]"
7,≥ 7.00,"CNCc1cc(F)c(-c2cc3c(-c4cnn(CCO)c4)n[nH]c3cn2)c(F)c1 [Example 164, 2-(4-(5-(2,6-Difluoro-4-((methylamino)methyl)phenyl)-1H-pyrazolo[3,4-c]pyridin-3-yl)-1H-pyrazol-1-yl)ethanol]"
8,≥ 7.00,"CNCc1cc(F)c(-c2cc3c(-c4ccc(OC)cc4)n[nH]c3cn2)c(F)c1 [Example 165, 1-(3,5-Difluoro-4-(3-(4-methoxyphenyl)-1H-pyrazolo[3,4-c]pyridin-5-yl)phenyl)-N-methylmethanamine]"
9,≥ 7.00,"CNCc1cc(F)c(-c2cc3c(-c4ccc(N5CCC(O)CC5)nc4)n[nH]c3cn2)c(F)c1 [Example 166, 1-(5-(5-(2,6-Difluoro-4-((methylamino)methyl)phenyl)-1H-pyrazolo[3,4-c]pyridin-3-yl)pyridin-2-yl)piperidin-4-ol]"
10,≥ 7.00,"CNCc1cc(F)c(-c2cc3c(-c4ccc(N5CCC(F)C5)cn4)n[nH]c3cn2)c(F)c1 (stereo not drawn) [Example 167, 1-(3,5-Difluoro-4-(3-(5-(3-fluoropyrrolidin-1-yl)pyridin-2-yl)-1H-pyrazolo[3,4-c]pyridin-5-yl)phenyl)-N-methylmethanamine]"
11,≥ 7.00,"CNCc1cc(C)c(-c2cc3c(-c4cnn(C)c4)n[nH]c3cn2)c(F)c1 [Example 168, 1-(3-Fluoro-5-methyl-4-(3-(1-methyl-1H-pyrazol-4-yl)-1H-pyrazolo[3,4-c]pyridin-5-yl)phenyl)-N-methylmethanamine]"
12,≥ 7.00,"CNCc1cc(C)c(-c2cc3c(-c4ccc(C(=O)NC)cc4)n[nH]c3cn2)c(F)c1 [Example 169, 4-(5-(2-Fluoro-6-methyl-4-((methylamino)methyl)phenyl)-1H-pyrazolo[3,4-c]pyridin-3-yl)-N-methylbenzamide]"
13,≥ 7.00,"CNC(=O)c1ccc(-c2n[nH]c3cnc(-c4c(C)cc(C5CCCN5)cc4F)cc23)cc1 (stereo not drawn) [Example 170, 4-(5-(2-Fluoro-6-methyl-4-(pyrrolidin-2-yl)phenyl)-1H-pyrazolo[3,4-c]pyridin-3-yl)-N-methylbenzamide]"
14,≥ 7.00,"Cc1cc(C2CCCN2C)cc(F)c1-c1cc2c(-c3cnn(C)c3)n[nH]c2cn1 (stereo not drawn) [Example 173, 5-(2-Fluoro-6-methyl-4-(1-methylpyrrolidin-2-yl)phenyl)-3-(1-methyl-1H-pyrazol-4-yl)-1H-pyrazolo[3,4-c]pyridine]"
15,≥ 7.00,"CCNCc1cc(C)c(-c2cc3c(-c4cnn(C)c4)n[nH]c3cn2)c(F)c1 [Example 176, N-(3-Fluoro-5-methyl-4-(3-(1-methyl-1H-pyrazol-4-yl)-1H-pyrazolo[3,4-c]pyridin-5-yl)benzyl)ethanamine]"
16,≥ 7.00,"Cc1cc(CNC2CC2)cc(F)c1-c1cc2c(-c3cnn(C)c3)n[nH]c2cn1 [Example 177, N-(3-Fluoro-5-methyl-4-(3-(1-methyl-1H-pyrazol-4-yl)-1H-pyrazolo[3,4-c]pyridin-5-yl)benzyl)cyclopropanamine]"
17,≥ 7.00,"Cc1cc(CNC(C)C)cc(F)c1-c1cc2c(-c3cnn(C)c3)n[nH]c2cn1 [Example 178, N-(3-Fluoro-5-methyl-4-(3-(1-methyl-1H-pyrazol-4-yl)-1H-pyrazolo[3,4-c]pyridin-5-yl)benzyl)propan-2-amine]"

row,pKi,Structure (SMILES)
1,≥ 7.00,"Cc1cc(CNCC(F)(F)F)cc(F)c1-c1cc2c(-c3cnn(C)c3)n[nH]c2cn1 [Example 179, 2,2,2-Trifluoro-N-(3-fluoro-5-methyl-4-(3-(1-methyl-1H-pyrazol-4-yl)-1H-pyrazolo[3,4-c]pyridin-5-yl)benzyl)ethanamine]"
2,≥ 7.00,"Cc1cc(CNCCO)cc(F)c1-c1cc2c(-c3cnn(C)c3)n[nH]c2cn1 [Example 180, 2-(3-Fluoro-5-methyl-4-(3-(1-methyl-1H-pyrazol-4-yl)-1H-pyrazolo[3,4-c]pyridin-5-yl)benzylamino)ethanol]"
3,≥ 7.00,"Cc1cc(CNC2CC(O)C2)cc(F)c1-c1cc2c(-c3cnn(C)c3)n[nH]c2cn1 (stereo not drawn) [Example 181, 3-(3-Fluoro-5-methyl-4-(3-(1-methyl-1H-pyrazol-4-yl)-1H-pyrazolo[3,4-c]pyridin-5-yl)benzylamino)cyclobutanol]"
4,≥ 7.00,"Cc1cc(CN2CCC2)cc(F)c1-c1cc2c(-c3cnn(C)c3)n[nH]c2cn1 [Example 182, 5-(4-(Azetidin-1-ylmethyl)-2-fluoro-6-methylphenyl)-3-(1-methyl-1H-pyrazol-4-yl)-1H-pyrazolo[3,4-c]pyridine]"
5,≥ 7.00,"Cc1cc(CN2CCC(O)C2)cc(F)c1-c1cc2c(-c3cnn(C)c3)n[nH]c2cn1 (stereo not drawn) [Example 183, 1-(3-Fluoro-5-methyl-4-(3-(1-methyl-1H-pyrazol-4-yl)-1H-pyrazolo[3,4-c]pyridin-5-yl)benzyl)pyrrolidin-3-ol]"
6,≥ 7.00,"Cc1cc(CNCC(C)(C)O)cc(F)c1-c1cc2c(-c3cnn(C)c3)n[nH]c2cn1 [Example 184, 1-(3-Fluoro-5-methyl-4-(3-(1-methyl-1H-pyrazol-4-yl)-1H-pyrazolo[3,4-c]pyridin-5-yl)benzylamino)-2-methylpropan-2-ol]"
7,≥ 7.00,"COC1CN(Cc2cc(C)c(-c3cc4c(-c5cnn(C)c5)n[nH]c4cn3)c(F)c2)C1 [Example 185, 5-(2-Fluoro-4-((3-methoxyazetidin-1-yl)methyl)-6-methylphenyl)-3-(1-methyl-1H-pyrazol-4-yl)-1H-pyrazolo[3,4-c]pyridine]"
8,≥ 7.00,"Cc1cc(CNCc2cn(C)cn2)cc(F)c1-c1cc2c(-c3cnn(C)c3)n[nH]c2cn1 [Example 186, N-(3-Fluoro-5-methyl-4-(3-(1-methyl-1H-pyrazol-4-yl)-1H-pyrazolo[3,4-c]pyridin-5-yl)benzyl)-1-(1-methyl-1H-imidazol-4-yl)methanamine]"
9,≥ 7.00,"Cc1cc(CNCc2cocn2)cc(F)c1-c1cc2c(-c3cnn(C)c3)n[nH]c2cn1 [Example 187, N-(3-Fluoro-5-methyl-4-(3-(1-methyl-1H-pyrazol-4-yl)-1H-pyrazolo[3,4-c]pyridin-5-yl)benzyl)-1-(oxazol-4-yl)methanamine]"
10,≥ 7.00,"Cc1cc(CNCC#N)cc(F)c1-c1cc2c(-c3cnn(C)c3)n[nH]c2cn1 [Example 188, 2-(3-Fluoro-5-methyl-4-(3-(1-methyl-1H-pyrazol-4-yl)-1H-pyrazolo[3,4-c]pyridin-5-yl)benzylamino)acetonitrile]"
11,≥ 7.00,"CC(=O)NCc1cc(C)c(-c2cc3c(-c4cnn(C)c4)n[nH]c3cn2)c(F)c1 [Example 191, N-(3-Fluoro-5-methyl-4-(3-(1-methyl-1H-pyrazol-4-yl)-1H-pyrazolo[3,4-c]pyridin-5-yl)benzyl)acetamide]"
12,≥ 7.00,"COC(=O)NCc1cc(C)c(-c2cc3c(-c4cnn(C)c4)n[nH]c3cn2)c(F)c1 [Example 192, Methyl 3-fluoro-5-methyl-4-(3-(1-methyl-1H-pyrazol-4-yl)-1H-pyrazolo[3,4-c]pyridin-5-yl)benzylcarbamate]"
13,≥ 7.00,"CNCc1cc(F)c(-c2cc3c(-c4ccc(N5CCN(C(C)=O)CC5)cn4)n[nH]c3cn2)c(OC(F)F)c1 [Example 193, 1-(4-(6-(5-(2-(Difluoromethoxy)-6-fluoro-4-((methylamino)methyl)phenyl)-1H-pyrazolo[3,4-c]pyridin-3-yl)pyridin-3-yl)piperazin-1-yl)ethanone]"
14,≥ 7.00,"CN1CCN(c2ccc(-c3n[nH]c4cnc(-c5c(F)cccc5CC#N)cc34)cc2)CC1 [Example 194, 2-(3-Fluoro-2-(3-(4-(4-methylpiperazin-1-yl)phenyl)-1H-pyrazolo[3,4-c]pyridin-5-yl)phenyl)acetonitrile]"
15,≥ 7.00,"CN1CCN(c2ccc(-c3n[nH]c4cnc(-c5c(F)cccc5CN)cc34)cc2)CC1 [Example 195, (3-Fluoro-2-(3-(4-(4-methylpiperazin-1-yl)phenyl)-1H-pyrazolo[3,4-c]pyridin-5-yl)phenyl)methanamine]"
16,≥ 7.00,"CN1CCN(c2ccc(-c3n[nH]c4cnc(-c5c(F)cccc5CO)cc34)cc2)CC1 [Example 196, (3-Fluoro-2-(3-(4-(4-methylpiperazin-1-yl)phenyl)-1H-pyrazolo[3,4-c]pyridin-5-yl)phenyl)methanol]"
